Legend:
D(1A) dopamine receptor = D(1A) dopamine receptor (Homo sapiens, UniProt P21728); test: Displacement of [3H]SCH23390 from D1 receptor
D(4) dopamine receptor = target: T1, D(4) dopamine receptor (Homo sapiens, UniProt P21917); test: biochemical
T1 sequence (P21917 whole entry): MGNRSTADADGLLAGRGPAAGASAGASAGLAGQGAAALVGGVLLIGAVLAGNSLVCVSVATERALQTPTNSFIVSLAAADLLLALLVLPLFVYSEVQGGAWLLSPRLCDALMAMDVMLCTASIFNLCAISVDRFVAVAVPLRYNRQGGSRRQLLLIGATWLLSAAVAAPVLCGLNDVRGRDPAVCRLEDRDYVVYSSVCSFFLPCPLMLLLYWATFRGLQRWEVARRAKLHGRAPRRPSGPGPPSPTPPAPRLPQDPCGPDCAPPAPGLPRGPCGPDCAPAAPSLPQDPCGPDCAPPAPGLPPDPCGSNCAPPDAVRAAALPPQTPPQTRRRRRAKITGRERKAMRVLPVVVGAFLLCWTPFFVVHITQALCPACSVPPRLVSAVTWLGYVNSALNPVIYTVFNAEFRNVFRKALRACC

D(3) dopamine receptor [1] = target: T2, D(3) dopamine receptor (Homo sapiens, UniProt P35462); test: biochemical
cells = conditions: Homo sapiens, HEK293
Description: Antagonist activity at human D2 like receptor expressed in HEK293 cells assessed as inhibition of quinpirole-stimulated mitogenesis

D(3) dopamine receptor [2] = target: T2, D(3) dopamine receptor; test: Agonist activity at human D3 receptor expressed in HEK293 cells assessed as stimulation of mitogenesis relative to quinpirole; format: functional, cell-based; parameters: concentration or dose not given beside the values
D(3) dopamine receptor [3] = target: T2, D(3) dopamine receptor
[4] = Antagonist activity at human D3 receptor expressed in HEK293 cells assessed as inhibition of quinpirole-stimulated mitogenesis
[5] = target: T3, 5-hydroxytryptamine receptor 1A (Homo sapiens, UniProt P08908); test: Displacement of [3H]8-OH-DPAT from 5HT1A receptor
T3 sequence (P08908 whole entry): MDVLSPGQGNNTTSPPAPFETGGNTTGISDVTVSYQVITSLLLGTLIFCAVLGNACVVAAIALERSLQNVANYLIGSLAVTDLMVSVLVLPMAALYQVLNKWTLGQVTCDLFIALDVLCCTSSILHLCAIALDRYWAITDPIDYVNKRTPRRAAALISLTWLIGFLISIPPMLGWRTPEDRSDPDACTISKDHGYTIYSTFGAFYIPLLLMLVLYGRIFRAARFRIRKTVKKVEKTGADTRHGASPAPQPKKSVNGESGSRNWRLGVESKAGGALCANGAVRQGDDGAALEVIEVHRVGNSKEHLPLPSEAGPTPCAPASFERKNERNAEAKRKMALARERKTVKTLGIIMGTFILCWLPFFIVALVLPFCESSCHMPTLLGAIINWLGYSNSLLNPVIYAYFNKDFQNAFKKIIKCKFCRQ

Homo sapiens = organism: Homo sapiens; test: Selectivity of IC50 for human D2 like receptor to IC50 for human D3 receptor

T2 sequence (P35462 whole entry): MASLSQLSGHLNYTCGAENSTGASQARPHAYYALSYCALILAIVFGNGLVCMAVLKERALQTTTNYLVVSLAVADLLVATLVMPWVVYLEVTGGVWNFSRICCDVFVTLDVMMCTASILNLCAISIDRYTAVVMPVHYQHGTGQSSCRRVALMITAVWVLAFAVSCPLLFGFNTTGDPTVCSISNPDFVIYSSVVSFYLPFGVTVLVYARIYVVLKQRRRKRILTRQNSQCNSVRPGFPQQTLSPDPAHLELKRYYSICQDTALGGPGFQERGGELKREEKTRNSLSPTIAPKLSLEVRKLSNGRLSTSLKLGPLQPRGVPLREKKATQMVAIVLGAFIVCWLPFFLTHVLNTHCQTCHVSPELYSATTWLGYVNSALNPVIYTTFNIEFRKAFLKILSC
D(1A) dopamine receptor, sequence (P21728 whole entry): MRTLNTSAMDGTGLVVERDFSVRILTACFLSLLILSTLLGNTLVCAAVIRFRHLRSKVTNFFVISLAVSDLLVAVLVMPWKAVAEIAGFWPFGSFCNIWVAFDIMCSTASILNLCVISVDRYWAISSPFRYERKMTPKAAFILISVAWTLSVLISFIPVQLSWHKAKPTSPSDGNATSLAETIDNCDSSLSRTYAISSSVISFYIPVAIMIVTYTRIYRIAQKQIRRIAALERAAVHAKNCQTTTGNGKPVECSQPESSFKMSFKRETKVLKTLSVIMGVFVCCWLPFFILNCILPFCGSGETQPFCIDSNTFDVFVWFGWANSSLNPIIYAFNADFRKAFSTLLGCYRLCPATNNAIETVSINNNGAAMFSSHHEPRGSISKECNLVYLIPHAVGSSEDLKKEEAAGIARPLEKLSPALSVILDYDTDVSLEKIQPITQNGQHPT

SMILES	Ki (D(1A) dopamine receptor)	Ki (D(4) dopamine receptor)	Ki (D(3) dopamine receptor [1])	IC50 (cells)	further results
COc1ccccc1N1CCN(CC(O)CCNC(=O)c2cc3cc(I)ccc3o2)CC1 (stereo unspecified)	3690 nM	1290 nM	7.5 nM	405 nM	
O=C(NCC[C@H](O)CN1CCN(c2cccc(Cl)c2Cl)CC1)c1cc2ccccc2[nH]1	> 10000 nM				Activity (D(3) dopamine receptor [2]): 42.2%
O=C(NCCC(O)CN1CCN(c2cccc(Cl)c2Cl)CC1)c1cc2cc(I)ccc2o1 (stereo unspecified)	> 10000 nM	> 10000 nM	7.71 nM		Activity (D(3) dopamine receptor [2]): 23.6%
O=C(NCCC(O)CN1CCN(c2cccc(Cl)c2Cl)CC1)c1cc2cc(I)ccc2[nH]1 (stereo unspecified)	> 10000 nM	> 10000 nM	5.21 nM		Activity (D(3) dopamine receptor [2]): 26%
COc1ccccc1N1CCN(CCCCNC(=O)c2cc3ccccc3[nH]2)CC1		476 nM			Ki (D(3) dopamine receptor [3]): 0.32 nM
O=C(NC/C=C/CN1CCN(c2cccc(Cl)c2Cl)CC1)c1cc2ccccc2s1	1730 nM			254 nM	IC50 [4]: 9.62 nM; Ki [5]: 388 nM
COc1ccccc1N1CCN(CCCCNC(=O)c2cc3ccccc3s2)CC1				21.4 nM	fold change (FC) (Homo sapiens): 100
COc1ccccc1N1CCN(CC(O)CCNC(=O)c2cc3cc(F)ccc3[nH]2)CC1 (stereo unspecified)	5060 nM	967 nM	2.41 nM	270 nM	fold change (FC) (Homo sapiens): 100
COc1ccccc1N1CCN(C/C=C/CNC(=O)c2cc3ccccc3o2)CC1	990 nM		11.3 nM		
COc1ccccc1N1CCN(CC(O)CCNC(=O)c2cc3cc(I)ccc3[nH]2)CC1 (stereo unspecified)	> 10000 nM	455 nM	3.6 nM		
O=C(NC/C=C/CN1CCN(c2cccc(Cl)c2Cl)CC1)c1cc2ccccc2[nH]1	910 nM	640 nM	0.44 nM	175 nM	Ki [5]: 193 nM
COc1ccc2[nH]c(C(=O)NCCC(O)CN3CCN(c4ccccc4OC)CC3)cc2c1 (stereo unspecified)	> 10000 nM	1530 nM	2.32 nM		fold change (FC) (Homo sapiens): > 100
O=C(NCCCCN1CCN(c2cccc(Cl)c2Cl)CC1)c1cc2cc(I)ccc2o1	2920 nM	1720 nM		1030 nM	
O=C(NCC[C@@H](O)CN1CCN(c2cccc(Cl)c2Cl)CC1)c1cc2ccccc2[nH]1	> 10000 nM				
O=C(NCCC(O)CN1CCN(c2cccc(Cl)c2Cl)CC1)c1cc2cc(F)ccc2[nH]1 (stereo unspecified)	> 10000 nM	> 5000 nM			
COc1ccccc1N1CCN(C/C=C/CNC(=O)c2cc3ccccc3s2)CC1	678 nM		2.61 nM		
COc1ccccc1N1CCN(CC(O)CCNC(=O)c2cc3ccccc3[nH]2)CC1 (stereo unspecified)	> 10000 nM			427 nM	Ki [5]: 132 nM
COc1ccccc1N1CCN(CC(O)CCNC(=O)c2cc3ccccc3o2)CC1 (stereo unspecified)	> 10000 nM	2140 nM	7.51 nM		
COc1ccccc1N1CCN(CCC(O)CNC(=O)c2cc3ccccc3[nH]2)CC1 (stereo unspecified)		176 nM	0.51 nM		
O=C(NC/C=C/CN1CCN(c2cccc(Cl)c2Cl)CC1)c1cc2ccccc2o1	1460 nM			111 nM	Ki [5]: 58.8 nM
COc1ccccc1N1CCN(CC(O)CCNC(=O)c2cc3ccccc3s2)CC1 (stereo unspecified)	6650 nM			146 nM	
CCCOc1ccccc1N1CCN(CC(O)CCNC(=O)c2cc3ccccc3[nH]2)CC1 (stereo unspecified)	4960 nM			162 nM	
O=C(NCCC(O)CN1CCN(c2cccc(Cl)c2Cl)CC1)c1cc2ccccc2o1 (stereo unspecified)	> 10000 nM	> 10000 nM	6.11 nM		Activity (D(3) dopamine receptor [2]): 22.6%
O=C(NCC(O)CCN1CCN(c2cccc(Cl)c2Cl)CC1)c1cc2ccccc2[nH]1 (stereo unspecified)	> 10000 nM	1040 nM		340 nM	Ki [5]: 58.3 nM
COc1ccccc1N1CCN(CCCCNC(=O)c2cc3cc(I)ccc3o2)CC1	900 nM	335 nM	0.72 nM	170 nM	
COc1ccc2[nH]c(C(=O)NCCC(O)CN3CCN(c4cccc(Cl)c4Cl)CC3)cc2c1 (stereo unspecified)	> 10000 nM	> 10000 nM	1.2 nM		fold change (FC) (Homo sapiens): > 100; Activity (D(3) dopamine receptor [2]): 34.9%

From ChEMBL document CHEMBL1153455, “N-(4-(4-(2,3-dichloro- or 2-methoxyphenyl)piperazin-1-yl)butyl)heterobiarylcarboxamides with functionalized linking chains as high affinity and enantioselective D3 receptor antagonists” (J Med Chem, 2009)
